From PubChem BioAssay (NCI)
Where “and” joins values, the source holds several entries; their conditions need not be identical. Equal entries are not always repeated.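 In this assay, cells in 96-well plates receive the compound at five concentrations for 48 hours. Endpoints are linearly interpolated between the surrounding concentrations. Abbreviation: GI50, concentration required for 50% inhibition of growth. Definition used: TGI = concentration required for complete inhibition of growth.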

Tests used:
Assay in all cases: NCI-60 cell line screen, 48 h
K-562 leukemia = system: K-562 leukemia
NCI-H23 lung = system: NCI-H23 lung
NCI-H522 lung = system: NCI-H522 lung
OVCAR-5 ovarian = system: OVCAR-5 ovarian
SK-MEL-28 melanoma = system: SK-MEL-28 melanoma
SK-MEL-5 melanoma = system: SK-MEL-5 melanoma
SW-620 colon = system: SW-620 colon
TK-10 renal = system: TK-10 renal
HS 578T breast = system: HS 578T breast
MDA-MB-231 breast = system: MDA-MB-231 breast

Structure (SMILES) | TGI (K-562 leukemia) [µM] | TGI (NCI-H23 lung) [µM] | TGI (NCI-H522 lung) [µM] | TGI (OVCAR-5 ovarian) [µM] | TGI (SK-MEL-28 melanoma) [µM] | TGI (SK-MEL-5 melanoma) | TGI (SW-620 colon) [µM] | TGI (TK-10 renal) [µM] | TGI (HS 578T breast) [µM] | GI50 (MDA-MB-231 breast) [µM] | TGI (MDA-MB-231 breast) | GI50 (NCI-H23 lung) [µM] | GI50 (OVCAR-5 ovarian) [µM] | GI50 (SK-MEL-28 melanoma) [µM] | GI50 (SK-MEL-5 melanoma) [µM] | GI50 (SW-620 colon) [µM] | GI50 (TK-10 renal) [µM] | GI50 (K-562 leukemia) [µM] | GI50 (NCI-H522 lung) [µM]
Cc1cc(C)c(-c2noc(-c3ccc(Cl)cc3)c2C2=NCCCN2)c(C)c1 | 37.7 | 40.1 | 71.3 | 86 | 29.9 | 24.2 µM | > 100 | – | – | – | – | – | – | – | – | – | – | – | –
Clc1cccc(-c2nnc(-c3nn(-c4ccccc4)c4nc5ccccc5nc34)o2)c1 | > 100 | > 100 | > 100 | > 100 | > 100 | > 100 µM | > 100 | > 100 | – | – | – | – | – | – | – | – | – | – | –
O=c1c(Cl)c(Cl)cnn1CCCl | 5.18 | 6.46 | 1.12 | 34.5 | 4.99 | 15.2 µM | 3.89 | 30.3 | 12.8 | – | – | – | – | – | – | – | – | – | –
O=C(Nc1ccc(Cl)cc1Cl)OC(Cn1cncn1)c1ccc(Cl)cc1Cl (centres undefined) | > 100 | 28.4 | 34.8 | – | 30.1 | 30.7 µM | 30.4 | – | – | – | – | – | – | – | – | – | – | – | –
COc1c(-c2ccccc2)nc2ccc(Oc3ccccc3)nn12 | > 100 | > 96.5 | > 100 | > 100 | 99.5 | > 63.2 µM | > 100 | > 100 | – | – | – | – | – | – | – | – | – | – | –
O=C(/C=C\c1cccc2ccccc12)c1ccc(Cl)cc1Cl | 38.6 | > 100 | 35.1 | 72.3 | 38.4 | > 100 µM | 34.2 | > 100 | – | – | – | – | – | – | – | – | – | – | –
CC1CCC2CC(=O)OC([C@@H]3C(=O)O[C@@H](C4=CCCC4)C4C(C)CCC43)C12 (some centres undefined) | > 100 | > 100 | > 100 | – | > 100 | > 100 µM | > 100 | > 100 | – | – | – | – | – | – | – | – | – | – | –
COc1ccc(S(=O)(=O)N(CC(=O)O)c2ccccc2)cc1 | > 100 | > 100 | > 100 | > 100 | > 100 | > 100 µM | > 100 | > 100 | – | – | – | – | – | – | – | – | – | – | –
Nc1c(Cl)ncnc1NCCCCCCCCCCCCNc1ncnc(Cl)c1N | > 100 | 2.41 | – | > 100 | 5.22 | 3.88 µM | 54 | > 100 | – | – | – | – | – | – | – | – | – | – | –
O=C(Nc1ccc(Cl)c(Cl)c1)C(=O)C(C(=O)c1ccccc1-c1ccccc1)C1OC(=O)c2ccccc21 (centres undefined) | > 100 | 24.6 | 20.6 | 33.9 | > 100 | 30.3 µM | 42.7 | 43.7 | – | – | – | – | – | – | – | – | – | – | –
COC(=O)[C@@H]1Cc2c([nH]c3ccccc23)[C@H](c2ccccc2)N1 | > 100 | > 100 | 53.1 | > 100 | > 100 | 63.4 µM | > 100 | > 100 | – | – | – | – | – | – | – | – | – | – | –
CCCCCCCCCC[C@H](O)[C@H](O)CC[C@@H](O)[C@H]1CC[C@@H]([C@H]2CC[C@H](CCCCCCC[C@@H](O)CC3=C[C@H](C)OC3=O)O2)O1 | – | – | 62.1 | > 100 | > 100 | 3.46 µM and 15.9 µM | > 100 | > 100 | – | 19.4 | 7.79 µM and 69.2 µM | 0.951 | 47.7 | 47 | 0.0863 | 47.2 | 36.3 | – | –
CN(/N=C/c1ccnc2ccccc12)c1c([N+](=O)[O-])cc([N+](=O)[O-])cc1[N+](=O)[O-] | > 100 | > 100 | 92.8 | > 100 | > 100 | > 100 µM | > 100 | > 100 | – | – | – | – | – | – | – | – | – | – | –
COc1ccc(OC)c(/C=N/N=C(\N)NO)c1 | > 100 | > 100 | 35 | > 100 | > 100 | – | > 100 | 56 | – | – | – | – | – | – | – | – | – | – | –
CN(/N=C\c1ccnc2ccccc12)c1ccc([N+](=O)[O-])cc1 | > 100 | > 100 | – | > 100 | > 100 | > 100 µM | > 100 | > 100 | – | – | – | – | – | – | – | – | – | – | –
COC(=O)[C@@]12CC(C(C)C)[C@H]3CC(C(=O)C=C1OC)[C@H]32 (some centres undefined) | > 100 | > 100 | – | > 100 | > 100 | > 100 µM | > 100 | > 100 | – | – | – | – | – | – | – | – | – | – | –
COC(=O)C1=CC2C=CC(C1C(=O)OC)C1C(C(=O)OC)=C(C(=O)OC)C(C(=O)OC)=C(C(=O)OC)C21OC (centres undefined) | – | > 100 | > 100 | > 100 | > 100 | > 100 µM | > 100 | > 100 | – | – | – | – | – | – | – | – | – | – | –

Structure (SMILES) | TGI (K-562 leukemia) [µM] | TGI (NCI-H23 lung) [µM] | TGI (NCI-H522 lung) [µM] | TGI (OVCAR-5 ovarian) [µM] | TGI (SK-MEL-28 melanoma) [µM] | TGI (SK-MEL-5 melanoma) | TGI (SW-620 colon) [µM] | TGI (TK-10 renal) [µM] | TGI (HS 578T breast) [µM] | GI50 (MDA-MB-231 breast) [µM] | TGI (MDA-MB-231 breast) | GI50 (NCI-H23 lung) [µM] | GI50 (OVCAR-5 ovarian) [µM] | GI50 (SK-MEL-28 melanoma) [µM] | GI50 (SK-MEL-5 melanoma) [µM] | GI50 (SW-620 colon) [µM] | GI50 (TK-10 renal) [µM] | GI50 (K-562 leukemia) [µM] | GI50 (NCI-H522 lung) [µM]
N/N=C(/Cc1nc2ccc(C(=O)c3ccccc3)cc2[nH]c1=O)C(=O)Nc1ccc([N+](=O)[O-])cc1[N+](=O)[O-] | > 100 | > 100 | > 100 | > 100 | > 100 | > 100 µM | > 100 | > 100 | – | – | – | > 100 | > 100 | > 100 | – | – | – | > 100 | > 100
CC(=O)[C@H]1CCC2[C@@H]3CC=C4C[C@@H]([O-])CC[C@]4(C)C3CC[C@@]21C.CC(=O)[C@H]1CCC2[C@@H]3CC=C4C[C@@H]([O-])CC[C@]4(C)C3CC[C@@]21C.CC(=O)[CH-]C(=O)c1ccccc1.CC(=O)[CH-]C(=O)c1ccccc1.Cl.[Ti+4] (some centres undefined) | > 100 | 29.5 | 66.5 | > 100 | – | > 100 µM | > 100 | > 100 | – | – | – | 13.4 | > 100 | – | 18.3 | 39 | 40.7 | 12.7 | 20.3
Cc1nc2c(o1)C(=Nc1ccccc1)c1nc(C)oc1C2=Nc1ccccc1 | > 100 | 63.7 | 42.7 | 92.4 | 44.9 | 2.34 µM | > 100 | > 100 | – | – | – | – | – | – | – | – | – | – | –
O=C(/C=C/c1cccc([N+](=O)[O-])c1)c1ccc([N+](=O)[O-])cc1 | > 100 | > 100 | > 100 | > 100 | > 100 | > 100 µM | > 100 | > 100 | – | – | – | – | – | – | – | – | – | – | –
COC(=O)C1C(=O)O[C@@H](c2cc(OC)c(OC)cc2OC)C1C(=O)OC (mixture of isomers) | > 100 | > 100 | > 100 | > 100 | > 100 | > 100 µM | > 100 | > 100 | – | – | – | – | – | – | – | – | – | – | –
CCOc1ccccc1N=Nc1c(-c2ccccc2)nn(C(=O)CC(=O)Nc2cccc(C)c2)c1-c1ccccc1 | > 100 | > 100 | > 100 | > 100 | > 100 | > 100 µM | > 100 | > 100 | – | – | – | – | – | – | – | – | – | – | –
CNS(=O)(=O)NNS(=O)(=O)c1ccc(OC)cc1 | > 100 | > 100 | > 100 | – | – | > 100 µM | > 100 | – | – | – | – | – | – | – | – | – | – | – | –
NC1=NN(c2ccccc2)C(=O)C1C(=O)C(=O)Nc1ccc(Cl)c(Cl)c1 (centres undefined) | > 100 | > 100 | > 100 | > 100 | > 100 | > 100 µM | > 100 | > 100 | – | – | – | – | – | – | – | – | – | – | –
CCNC(=O)OCc1c(COC(=O)NCC)c(-c2ccc(Cl)c(Cl)c2)n2c1CCC2 | 37.8 | 26.3 | 19.8 | 59.1 | 36.9 | 29.8 µM | 68.8 | 54.5 | – | – | – | – | – | – | – | – | – | – | –
COc1cc(/C=N/N=C(\N)NO)c(Cl)cc1O | > 100 | > 100 | > 100 | > 100 | > 100 | > 100 µM | > 100 | – | – | – | – | – | – | – | – | – | – | – | –
N#CC(C(=O)/C(=N\NC(N)=O)C(C#N)c1ccccc1)c1ccccc1 (centres undefined) | > 100 | > 100 | > 100 | > 100 | > 100 | – | > 100 | > 100 | – | – | – | – | – | – | – | – | – | – | –
COC1(OC)C2(Cl)C(Cl)=C(Cl)C1(Cl)C1C2C2CC1(C(=O)O)c1ccccc12 (centres undefined) | 43.2 | 28.4 | – | – | 38.9 | 30.5 µM | 54.3 | 70 | – | – | – | – | – | – | – | – | – | – | –
O=C1c2ccccc2C2CCC1c1ccccc12 (centres undefined) | > 100 | 65 | 70.6 | > 100 | > 100 | 34.1 µM | > 100 | 93.9 | – | – | – | – | – | – | – | – | – | – | –
CN1CCN(C(=O)COc2ccc(/C=C3\CC4C5CC=C6CC(Cl)CCC6(C)C5CCC4(C)C3=O)cc2)CC1 (centres undefined) | > 100 | > 100 | > 100 | > 100 | > 100 | – | – | > 100 | – | > 100 | > 100 µM | > 100 | > 100 | > 100 | – | – | 27.4 | 2.61 | > 100
COC1OC2COC(C)(C)OC2C(OC(C)=O)C1NC(=O)N(CCCl)N=O (centres undefined) | > 100 | > 100 | 67.1 | > 100 | > 100 | > 100 µM | > 100 | > 100 | – | – | – | – | – | – | – | – | – | – | –
Clc1cccc(C2N3CCCCC3[C@@H]3c4[nH]c5ccccc5c4CCN23)c1 (some centres undefined) | 65.8 | 45 | – | 55.5 | 79.9 | 34.1 µM | > 100 | > 100 | – | – | – | – | – | – | – | – | – | – | –
C/C=C1\CN2CCc3c([nH]c4ccccc34)C2CC1CCO (centres undefined) | > 100 | > 100 | > 100 | > 100 | > 100 | > 100 µM | > 100 | > 100 | – | – | – | – | – | – | – | – | – | – | –
